Measurements published in US20250084058A1, “PHENYLPYRAZOLE COMPOUND AND APPLICATION THEREOF” (priority 2022, published 2025).
Where two headings read alike, the source gives them in different places.

Columns and labels:
Type in all cases: in vivo
Plutella xylostella = assay: Activity determination of killing Plutella xylostella (Airbrush spray, cabbage leaf discs); conditions: foliar; for mortality at 0.3125 µg/mL: read-out: Mortality (%, on 3rd day after administration) 0.3125 mg/L; for mortality at 0.625 µg/mL: read-out: Mortality (%, on 3rd day after administration) 0.625 mg/L
Experimental: (§1) The compounds to be tested were dissolved in a mixed solvent of acetone/methanol (1:1) and then diluted to desired concentrations with water containing 0.1% (wt) Tween 80.
(§2) With Mythimna separata and Plutella xylostella as targets, the activity was determined by Airbrush spray method.
Determination method: Cabbage leaves were punched into leaf discs with the diameter of 2 cm by a puncher, the pressure of Airbrush spray treatment is 10 psi (about 0.7 kg/cm^2), and the compounds to be tested were sprayed onto the front and back surfaces of each leaf disc at a liquid amount of 0.5 mL. After drying in the shade, 10 3rd instar larvae were inoculated to each treatment, and each treatment was repeated for 3 times. After the treatment, the larvae were placed in an observation room for culture at 25° C. with relative humidity of 60-70%. On 3rd day after administration, the number of surviving larvae was investigated, and the mortality was calculated.
Some compounds of the present disclosure and control compounds were selected to carry out parallel comparative experiments of the insecticidal activity against Plutella xylostella (on 3rd day after administration), and the determination method was the same as above.

Mythimna separata = assay: Activity determination of killing Mythimna separata (Airbrush spray, corn leaf segments); conditions: foliar, dose 1.25 mg/L, 3rd instar larvae, 3rd day after administration, read-out: mortality against Mythimna separata
Experimental: as §1, §2
Determination method: Corn leaves were cut into leaf segments with the length of 2 cm, the pressure of Airbrush spray treatment is 10 psi (about 0.7 kg/cm^2), and the compounds to be tested were sprayed onto the front and back surfaces of each leaf segment at a liquid amount of 0.5 mL. After drying in the shade, 10 3rd instar larvae were inoculated to each treatment, and each treatment was repeated for 3 times. After the treatment, the larvae were placed in an observation room for culture at 25° C. with relative humidity of 60-70%. On the 3rd day after administration, the number of surviving larvae was investigated, and the mortality was calculated.

Tetranychus cinnabarinus = assay: Greenhouse acaricidal activity on adult acarids of Tetranychus cinnabarinus (spraying of Phaseolus vulgaris seedlings); conditions: dose 1.25 mg/L, after 72 h, read-out: mortality against adult acarids of Tetranychus cinnabarinus
Experimental: According to the solubility of the compounds to be tested, the compounds to be tested were dissolved in acetone or dimethyl sulfoxide and prepared into 50 mL of solutions to be tested at desired concentrations with a 0.1% Tween 80 solution, where the content of the acetone or dimethyl sulfoxide in the solutions was not higher than 10%.
Two true leaves of Phaseolus vulgaris seedlings were taken, and 30-40 adult acarids of Tetranychus cinnabarinus were inoculated. After the cardinal number was investigated, the whole plants were subjected to spraying treatment with a hand-held sprayer, each treatment was repeated for 3 times, and the plants were placed in a standard observation room after the treatment. The number of surviving acarids was investigated after 72 h, and the mortality was calculated.

Ctenocephalides felis = assay: Insecticidal test on Ctenocephalides felis (compound film in culture dish); conditions: 1 μg/cm^2; adult Ctenocephalides felis; after 72 h; 25° C.; read-out: insect mortality (Ctenocephalides felis)
Experimental: 4 mg of compounds to be tested were dissolved in 40 mL of acetone to obtain acetone solutions with a concentration of 100 mg/L. Bottom surfaces and side surfaces of culture dishes with an inner diameter of 5.3 cm were coated with 400 μL of the drug solutions, and when the acetone was volatilized, films of the compounds of the present disclosure were prepared on inner walls of the culture dishes. The inner walls of the culture dishes used were 40 cm^2, and a dose of the treatment drugs was 1 μg/cm^2. 10 adult Ctenocephalides felis (males and females were mixed) were placed in the culture dishes, and the culture dishes were covered and then stored in a constant-temperature room at 25° C. The number of dead insects was checked after 72 h, and the insect mortality was calculated. The test was repeated for 3 times. Test results: The insect mortality of compounds 1, 2, 3, 4, 5, 11, 12, 18, 32, 33, 34, 46, 60, 74, 88, 99, 101, 102, 104, 105, 108, 109, 110, 111, 113 and 114 is 70% or above.

Dermacentor variabilis = assay: Insecticidal test on Dermacentor variabilis (compound film in culture dish); conditions: 1 μg/cm^2, 1st nymphs, after 24 h, 25° C., read-out: insect mortality (Dermacentor variabilis)
Experimental: 4 mg of compounds to be tested were dissolved in 40 mL of acetone to obtain acetone solutions with a concentration of 100 mg/L. Bottom surfaces and side surfaces of 2 culture dishes with an inner diameter of 5.3 cm were coated with 400 μL of the drug solutions, and when the acetone was volatilized, films of the compounds of the present disclosure were prepared on inner walls of the culture dishes. The inner walls of the culture dishes used were 40 cm^2, and a dose of the treatment drugs was 1 μg/cm^2. 10 1st nymphs of Dermacentor variabilis (males and females were mixed) were placed in the culture dishes. The 2 culture dishes were combined, sealed with tape at a junction portion to prevent escape of the nymphs, and then stored in a constant-temperature room at 25° C. The number of dead insects was checked after 24 h, and the insect mortality was calculated. The test was repeated for 3 times. Test results: The insect mortality of compounds 1, 2, 3, 4, 5, 11, 12, 18, 32, 33, 34, 46, 60, 74, 88, 99, 101, 102, 104, 105, 108, 109, 110, 111, 113 and 114 is 70% or above.

[1] = read-out: Mortality (%, on 3rd day after administration) 1.25 mg/L
[2] = 0.3125 mg/L, parallel comparative experiment, 3rd day after administration
[3] = 0.625 mg/L, parallel comparative experiment, 3rd day after administration
[4] = 1.25 mg/L, parallel comparative experiment, 3rd day after administration, read-out: Mortality (%, on 3rd day after administration) 1.25 mg/L
[5] = dose 1.25 mg/L, 3rd instar larvae, 3rd day after administration, read-out: mortality against Plutella xylostella

SMILES	mortality at 0.3125 µg/mL (Plutella xylostella) [%]	mortality at 0.625 µg/mL (Plutella xylostella) [%]	mortality at 1.25 µg/mL (Plutella xylostella; [1]) [%]	mortality at 1.25 µg/mL (Mythimna separata) [%]	mortality at 0.3125 µg/mL (Plutella xylostella; [2]) [%]	mortality at 0.625 µg/mL (Plutella xylostella; [3]) [%]	mortality at 1.25 µg/mL (Plutella xylostella; [4]) [%]	mortality at 1.25 µg/mL (Plutella xylostella; [5]) [%]	mortality at 1.25 µg/mL (Tetranychus cinnabarinus) [%]	mortality at 1 µg/cm2 (Ctenocephalides felis) [%]	mortality at 1 µg/cm2 (Dermacentor variabilis) [%]
CN(C(=O)c1cc(-c2cnn(-c3c(Cl)cc(C(F)(C(F)(F)F)C(F)(F)F)cc3Cl)c2)cnc1Cl)C1CC1 [CK2, reference compound]	13.3	60	93.3	–	–	–	–	–	–	–	–
O=C(c1cc(-c2cnn(-c3c(Cl)cc(C(F)(C(F)(F)F)C(F)(F)F)cc3Cl)c2)cnc1Cl)N(CC1CC1)C1CC1 [Compound 3]	–	–	–	≥ 90	76.7	100	100	≥ 90	≥ 90	≥ 70	≥ 70
CC(=O)N(C(=O)c1cc(-c2cnn(-c3c(Cl)cc(C(F)(C(F)(F)F)C(F)(F)F)cc3Cl)c2)cnc1Cl)C1CC1 [Compound 99]	–	–	–	≥ 90	100	100	100	≥ 90	≥ 90	≥ 70	≥ 70
COCC(=O)N(C(=O)c1cc(-c2cnn(-c3c(Cl)cc(C(F)(C(F)(F)F)C(F)(F)F)cc3Cl)c2)cnc1Cl)C1(C#N)CC1 [Compound 114]	–	–	–	≥ 90	100	100	100	≥ 90	≥ 90	≥ 70	≥ 70
COCC(=O)N(C(=O)c1cc(-c2cnn(-c3c(Cl)cc(C(F)(C(F)(F)F)C(F)(F)F)cc3Cl)c2)cnc1Cl)C1CC1 [Compound 105]	–	–	–	≥ 90	100	100	100	≥ 90	≥ 90	≥ 70	≥ 70
CCC(=O)N(C(=O)c1cc(-c2cnn(-c3c(Cl)cc(C(F)(C(F)(F)F)C(F)(F)F)cc3Cl)c2)cnc1Cl)C1(C#N)CC1 [Compound 109]	–	–	–	≥ 90	–	–	–	≥ 90	≥ 90	≥ 70	≥ 70
CCCC(=O)N(C(=O)c1cc(-c2cnn(-c3c(Cl)cc(C(F)(C(F)(F)F)C(F)(F)F)cc3Cl)c2)cnc1Cl)C1CC1 [Compound 101]	–	–	–	≥ 90	–	–	–	≥ 90	≥ 90	≥ 70	≥ 70
N#CC1(NC(=O)c2cc(-c3cnn(-c4c(Cl)cc(C(F)(C(F)(F)F)C(F)(F)F)cc4Cl)c3)cnc2Cl)CC1 [CK3, reference compound]	30	60	100	–	–	–	–	–	–	–	–
N#CC1(N(C(=O)c2cc(-c3cnn(-c4c(Cl)cc(C(F)(C(F)(F)F)C(F)(F)F)cc4Cl)c3)cnc2Cl)C(=O)C2CC2)CC1 [Compound 113]	–	–	–	≥ 90	100	100	100	≥ 90	≥ 90	≥ 70	≥ 70
CN(C(=O)c1cc(-c2cnn(-c3c(Cl)cc(C(F)(C(F)(F)F)C(F)(F)F)cc3Cl)c2)cnc1Cl)C1(C#N)CC1 [CK4, reference compound]	20	56.7	90	–	–	–	–	–	–	–	–
N#CCCCN(C(=O)c1cc(-c2cnn(-c3c(Cl)cc(C(F)(C(F)(F)F)C(F)(F)F)cc3Br)c2)cnc1Cl)C1CC1 [Compound 34]	–	–	–	≥ 90	–	–	–	≥ 90	≥ 90	≥ 70	≥ 70
N#CCCN(C(=O)c1cc(-c2cnn(-c3c(Cl)cc(C(F)(C(F)(F)F)C(F)(F)F)cc3Cl)c2)cnc1Cl)C1(C#N)CC1 [Compound 12]	–	–	–	≥ 90	100	100	100	≥ 90	≥ 90	≥ 70	≥ 70
N#CCN(C(=O)c1cc(-c2cnn(-c3c(Cl)cc(C(F)(C(F)(F)F)C(F)(F)F)cc3OC(F)(F)F)c2)cnc1Cl)C1CC1 [Compound 88]	–	–	–	≥ 90	–	–	–	≥ 90	≥ 90	≥ 70	≥ 70
N#CCN(C(=O)c1cc(-c2cnn(-c3c(Br)cc(C(F)(C(F)(F)F)C(F)(F)F)cc3OC(F)(F)F)c2)cnc1Cl)C1CC1 [Compound 74]	–	–	–	≥ 90	–	–	–	≥ 90	≥ 90	≥ 70	≥ 70
N#CCN(C(=O)c1cc(-c2cnn(-c3c(Cl)cc(C(F)(C(F)(F)F)C(F)(F)F)cc3Br)c2)cnc1Cl)C1CC1 [Compound 32]	–	–	–	≥ 90	–	–	–	≥ 90	≥ 90	≥ 70	≥ 70
N#CCCN(C(=O)c1cc(-c2cnn(-c3c(Cl)cc(C(F)(C(F)(F)F)C(F)(F)F)cc3Br)c2)cnc1Cl)C1CC1 [Compound 33]	–	–	–	≥ 90	–	–	–	≥ 90	≥ 90	≥ 70	≥ 70
O=C(NC1CC1)c1cc(-c2cnn(-c3c(Cl)cc(C(F)(C(F)(F)F)C(F)(F)F)cc3Cl)c2)cnc1Cl [CK1, reference compound]	–	–	–	–	20	66.7	100	–	–	–	–
CC(C)C(=O)N(C(=O)c1cc(-c2cnn(-c3c(Cl)cc(C(F)(C(F)(F)F)C(F)(F)F)cc3Cl)c2)cnc1Cl)C1(C#N)CC1 [Compound 111]	–	–	–	≥ 90	–	–	–	≥ 90	≥ 90	≥ 70	≥ 70
